Test results from US12637464B2, “Tetracyclic compounds for treating brain disorders” (The Regents of the University of California, priority 2021, dated 2026).

Assays:
5-HT2 receptors = assay: Traditional GPCR binding and functional assays (radioligand binding, IP1, β-arrestin); assay type: cell-based, human; settings: FIG. 3B
Description: Radioligand Binding Assays (5-HT2AR and 5-HT2CR). The 5-HT2AR and 5-HT2CR competitive radioligand binding assays were performed at Epics Therapeutics S.A. (Belgium, FAST-0505B) using conventional methods. Briefly, competition binding was performed in duplicate in the wells of a 96-well plate (Master Block, Greiner, 786201) containing binding buffer, membrane extracts, radiotracer [^3H]-DOI and test compound. Nonspecific binding was determined by co-incubation with 200-fold excess of cold competitor DOI. The samples were incubated in a final volume of 0.1 mL at a temperature and for a duration optimized for either the 5-HT2AR or 5-HT2CR and then filtered over filter plates. […] The plates were incubated for 15 min on an orbital shaker and then counted with a TopCount™ for 1 min/well. […]
IP1 Assay (5-HT2AR and 5-HT2CR). […] After addition of the lysis buffer containing IP1-d2 and anti-IP1 cryptate detection reagents, plates were incubated for 1 h at room temperature and fluorescence ratios were measured according to the manufacturer's specifications using the HTRF kit. […]
β-Arrestin Activation (PathHunter®). […] PK and EA are then expressed as fusion proteins in U2OS cells, with PK fused to the GPCR of interest, and EA fused to β-Arrestin. […]
Serotonin 5-HT2A In Vitro Radioligand Binding Competition Assay. […] Nonspecific binding is determined by co-incubation with 200-fold excess of cold competitor. […]

serotonin receptors = assay: Radioligand binding selectivity panel (Eurofins Discovery); settings: FIG. 3A; binding profile compared to (+)-LSD
C57BL/6J mice = assay: Amphetamine induced locomotion; assay type: in vivo, mouse; settings: pretreatment 1 mg/kg
Description: Amphetamine Induced Locomotion. The amphetamine-induced hyperlocomotion assay was performed using male and female C57BL/6J mice that were approximately 8 weeks old at the time of the experiments. Animals were first placed in the test arena (40 cm×40 cm) for 15 min to obtain a basal reading of locomotion and habituate them to the testing arena. Next, animals were administered (+)-JRT (1 mg/kg) or VEH (2.5 mL/kg, i.p) and placed back in the test arena. After 15 min, the animals were administered D-amphetamine (3 mg/kg) or VEH (2.5 mL/kg) and placed back in the test arena for 60 minutes. Locomotion during the entire experiment was quantified using ANYmaze Video Tracking System, version 7.07 (Stoelting Co.).

CCN(CC)C(=O)[C@@H]1C=C2c3cccc4ccn(c34)C[C@H]2N(C)C1 [(+)-JRT]
agonism of 5-HT2 receptors (5-HT2 receptors): potent agonist of 5-HT2 receptors
receptor selectivity (binding profile) (serotonin receptors): highly selective for serotonin receptors
AMPH-induced hyperlocomotion, female mice (C57BL/6J mice): can block
